From PubChem BioAssay (NCI)
Where “and” joins values, the source holds several entries; their conditions need not be identical. Equal entries are not always repeated.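 Values below derive from 48-hour exposures of cells grown in 96-well plates, with endpoints linearly interpolated between the two concentrations bracketing the appropriate inhibition level. GI50 marks 50% less growth. The concentration for full growth arrest is given as TGI.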

Key:
Test in all cases: NCI-60 cell line screen, 48 h
HCT-15 colon = test system: HCT-15 colon
CCRF-CEM leukemia = test system: CCRF-CEM leukemia
IGROV1 ovarian = test system: IGROV1 ovarian
HT29 colon = test system: HT29 colon
NCI-H226 lung = test system: NCI-H226 lung
SW-620 colon = test system: SW-620 colon
SK-OV-3 ovarian = test system: SK-OV-3 ovarian
K-562 leukemia = test system: K-562 leukemia
HCC-2998 colon = test system: HCC-2998 colon
LOX IMVI melanoma = test system: LOX IMVI melanoma

SMILES | GI50 (HCT-15 colon) | TGI (HCT-15 colon) | GI50 (CCRF-CEM leukemia) | TGI (CCRF-CEM leukemia) | GI50 (IGROV1 ovarian) | TGI (IGROV1 ovarian) | GI50 (HT29 colon) | TGI (HT29 colon) | GI50 (NCI-H226 lung) | TGI (NCI-H226 lung) | GI50 (SW-620 colon) | TGI (SW-620 colon) | GI50 (SK-OV-3 ovarian) | TGI (SK-OV-3 ovarian) | GI50 (K-562 leukemia) | TGI (K-562 leukemia) | GI50 (HCC-2998 colon) | TGI (HCC-2998 colon) | GI50 (LOX IMVI melanoma) | TGI (LOX IMVI melanoma)
CCOC(=O)C1CCN(S(=O)(=O)/N=C2/NC(=O)NC2=C(Cl)Cl)CC1 | 1.82 µM | 3.56 µM | 1.23 µM | 3.16 µM | 1.91 µM | 3.93 µM | 2.2 µM | 4.3 µM | 2.86 µM | 9.94 µM | 2.09 µM | 4.37 µM | 9.94 µM | 21.7 µM | 1.82 µM | 5.99 µM | 2.05 µM | 3.67 µM | – | –
CCc1nc2cc(F)c(/C=C/C(=O)NO)cc2c(=O)n1CCc1ccccc1 | 0.36 µM | 18.6 µM | 0.4 µM | > 100 µM | – | – | 0.343 µM | 12.1 µM | 0.371 µM | 7.36 µM | 0.336 µM | 12.1 µM | 0.263 µM | 0.787 µM | 0.303 µM | > 100 µM | 0.381 µM | 12.7 µM | 0.208 µM | 0.46 µM
COc1c2c(cc3c1OCO3)[C@]13C=C[C@H](OC)C[C@H]1N(C2)CC3O (stereo partly drawn) | – | > 100 µM | – | > 100 µM | – | > 100 µM | – | > 100 µM | – | > 100 µM | – | > 100 µM | – | > 100 µM | – | – | – | > 100 µM | – | > 100 µM
c1ccc(C2N3CCCCC3[C@@H]3c4[nH]c5ccccc5c4CCN23)nc1 (stereo partly drawn) | – | > 100 µM | – | > 100 µM | – | > 100 µM | – | > 100 µM | – | – | – | > 100 µM | – | > 100 µM | – | > 100 µM | – | – | – | –
CC12OC(C(=O)C13CC3)C1C(=O)c3ccc4c(ccc5ccccc54)c3C(=O)C12 (stereo not drawn) | – | – | 29.5 µM | > 100 µM | 28.9 µM | > 100 µM | 55.9 µM | > 100 µM | – | – | – | – | 76.4 µM | > 100 µM | 47.6 µM | > 100 µM | 20.4 µM | > 100 µM | – | –
O=C1c2ccccc2C(=O)C1(O)c1c[nH]c2ccccc12 | – | > 100 µM | – | > 100 µM | – | > 100 µM | – | > 100 µM | – | – | – | > 100 µM | – | > 100 µM | – | > 100 µM | – | – | – | > 100 µM
Cc1cc2nc(C=C(C(F)(F)F)C(F)(F)F)oc2cc1C | – | 9.62 µM | – | 6.74 µM | – | 8.08 µM | – | 7.76 µM | – | – | – | 3.42 µM | – | > 10 µM | – | 5.1 µM | – | 6.9 µM | – | 3.96 µM
Cc1[nH]c(=O)nc2[nH][nH]c(=O)c12 | – | > 100 µM | – | > 100 µM | – | > 100 µM | – | > 100 µM | – | > 100 µM | – | > 100 µM | – | > 100 µM | – | > 100 µM | – | – | – | > 100 µM
COC(=O)C(CC(=O)Nc1ccc(C)cc1)C(=O)C(=O)Nc1c(C(C)C)cccc1C(C)C (stereo not drawn) | – | > 100 µM | – | > 100 µM | – | > 100 µM | – | – | – | > 100 µM | – | > 100 µM | – | > 100 µM | – | > 100 µM | – | > 100 µM | – | > 100 µM
C=CCCCCC/C=C\[C@@H](O)C#CC#C/C=C/CO | > 100 µM | > 100 µM | – | – | 23.5 µM | > 100 µM | > 100 µM | > 100 µM | 25.5 µM | 57.6 µM | 48.2 µM | > 100 µM | > 100 µM | > 100 µM | 18.5 µM | 37.5 µM | > 100 µM | > 100 µM | 17.2 µM | 32.1 µM
CCCC1=C(CC)C(C(=O)Nc2c(C)cccc2C)=NC(S)N1 (stereo not drawn) | – | > 100 µM | – | > 100 µM | – | > 100 µM | – | > 100 µM | – | > 100 µM | – | > 100 µM | – | – | – | > 100 µM | – | – | – | –
CNC(=S)/N=C(\N)N(C)C | – | > 100 µM | – | – | – | > 100 µM | – | > 100 µM | – | > 100 µM | – | > 100 µM | – | > 100 µM | – | > 100 µM | – | > 100 µM | – | > 100 µM
COc1ccc2c3c([nH]c2c1[N+](=O)[O-])C(C)N(C)CC3 (stereo not drawn) | – | > 100 µM | – | 95.2 µM | – | > 100 µM | – | 42.6 µM | – | > 100 µM | – | > 100 µM | – | > 100 µM | – | 40.1 µM | – | > 100 µM | – | –
CC1(C)C(=O)/C(=C\c2cccnc2)C[C@]2(C)[C@H]3CC[C@@H]4[C@H]5[C@H](C(=O)/C=C/c6cccnc6)CC[C@]5(C(=O)O)CC[C@@]4(C)[C@]3(C)CC[C@@H]12 | 1.76 µM | 4.54 µM | 1.44 µM | 8.07 µM | – | – | 3.09 µM | 10.8 µM | – | – | 2.79 µM | 10.3 µM | 3.82 µM | 14.5 µM | 2.05 µM | 20.5 µM | 1.88 µM | 3.55 µM | 1.74 µM | 3.6 µM
S=c1ssc(N2CCOCC2)c1Cl | 23.6 µM | > 100 µM | – | – | – | – | 47.4 µM | > 100 µM | > 100 µM | > 100 µM | – | – | 28.1 µM | > 100 µM | 26.3 µM | > 100 µM | 30.6 µM | > 100 µM | 17.7 µM | 37.8 µM
CCNCCNc1cc(-c2ccc(C(F)(F)F)cc2)c(C#N)c2nc3ccccc3n12 | 0.612 µM | 1.9 µM | 0.266 µM | 0.683 µM | 1.45 µM | 2.99 µM | 0.365 µM | 1.29 µM | 1.7 µM | 3.53 µM | 1.22 µM | 2.75 µM | 1.66 µM | 3.17 µM | – | – | 1.8 µM | 3.4 µM | 0.185 µM | 0.382 µM
COc1ccc(C(=O)c2cc(OC)c(OC)c(OC)c2)cc1/C=C/C(=O)c1ccc(F)cc1 | 2.14 µM | 6.96 µM | 2.24 µM | 9.69 µM | 2.59 µM | 6.73 µM | 2.44 µM | 5.63 µM | 3.57 µM | 18.1 µM | 2.53 µM | 7.44 µM | 17.9 µM | 73.1 µM | 2.34 µM | > 100 µM | 7.29 µM | 22.6 µM | – | –
O=C1c2cccnc2-c2nc(-c3ccc(Cl)cc3)cc3c2c1nc1ccccc13 | 23.9 µM | > 100 µM | > 100 µM | > 100 µM | 32.3 µM | > 100 µM | – | – | 49.5 µM | > 100 µM | 28.6 µM | > 100 µM | – | – | 38.7 µM | > 100 µM | > 100 µM | > 100 µM | 35.7 µM | > 100 µM
Cc1cc(NC(=S)SCc2ccc(F)cc2)c([N+](=O)[O-])cc1C | – | 46.4 µM | – | – | – | – | – | 34.6 µM | – | 38.7 µM | – | > 100 µM | – | > 100 µM | – | > 100 µM | – | – | – | –
COC(=O)C(Cc1nc2ccccc2[nH]c1=O)C(NO)C(=O)Nc1c(Cl)cc([N+](=O)[O-])cc1Cl (stereo not drawn) | – | > 100 µM | – | 65.3 µM | – | > 100 µM | – | > 100 µM | – | – | – | – | – | > 100 µM | – | > 100 µM | – | > 100 µM | – | –
Nc1ccccc1/C(O)=C1/CCOC1=O | – | – | – | > 100 µM | – | > 100 µM | – | > 100 µM | – | > 100 µM | – | > 100 µM | – | > 100 µM | – | > 100 µM | – | – | – | –
COc1c(C(=O)/C=C/c2ccccc2)c(O)cc2occc12 | 5.25 µM | 22.7 µM | – | – | 3.51 µM | 11.4 µM | 6.34 µM | 35.6 µM | 6.03 µM | 20.8 µM | 3.52 µM | 11.7 µM | 14.1 µM | 36.4 µM | 4.42 µM | > 100 µM | 3.76 µM | 14.3 µM | 1.69 µM | 3.31 µM
COc1ccc(C[N+](C)(C)N)cc1OC | > 100 µM | > 100 µM | > 100 µM | > 100 µM | – | > 100 µM | > 100 µM | > 100 µM | – | > 100 µM | > 100 µM | > 100 µM | > 100 µM | > 100 µM | – | > 100 µM | – | – | > 100 µM | > 100 µM
c1cnn(CN(Cn2cccn2)Cn2cccn2)c1 | – | > 100 µM | – | > 100 µM | – | – | – | – | – | – | – | > 100 µM | – | > 100 µM | – | > 100 µM | – | – | – | > 100 µM
Clc1cc(Cl)c2ns[s+]c2c1Cl | – | – | – | > 100 µM | – | > 100 µM | – | > 100 µM | – | > 100 µM | – | > 100 µM | – | > 100 µM | – | > 100 µM | – | – | – | > 100 µM
c1ccc(Sc2ccc(Cc3nc4cc5ccccc5cc4[nH]3)cc2)cc1 | 0.205 µM | 53.9 µM | 1.42 µM | > 59 µM | 27.1 µM | > 100 µM | 8.54 µM | > 100 µM | 2.48 µM | 26.9 µM | 8.38 µM | > 67.6 µM | 3.27 µM | > 24.8 µM | 0.279 µM | > 47.8 µM | – | – | 1.42 µM | 29.1 µM
O=C(c1cccc2ccccc12)N1CCC(C2CCN(C(=O)c3cccc4ccccc34)CC2)CC1 | – | > 100 µM | – | > 100 µM | – | > 100 µM | – | > 100 µM | – | > 100 µM | – | > 100 µM | – | > 100 µM | – | > 100 µM | – | – | – | > 100 µM
COc1cc(Cc2nccc3cc(OC)c(OC)cc23)c(C(C)=O)cc1OC | 195 µM and 249 µM | 300 µM and > 750 µM | 15.4 µM and 16.2 µM | 98.2 µM and 63 µM | 51.4 µM and 92.7 µM | 300 µM and 440 µM | 96.8 µM and 140 µM | 300 µM and 626 µM | – | – | – | 300 µM and > 750 µM | – | 254 µM | 37.6 µM and 194 µM | 300 µM | – | 300 µM and > 750 µM | 150 µM and 94 µM | 300 µM and > 750 µM
